Experimental data published in patent US8829014B2, “Thiazole and thiophene analogues, and their use in treating autoimmune diseases and cancers” (Board of Supervisors of Louisiana State University and …, priority 2006, dated 2014).

Experiments:
Format in all cases: cell-based
eIF4E = eIF4E inhibitor screen: luciferase under FGF 5′UTR in FaDu cells (highly cap-dependent translation)
Description: Since highly cap-dependent translation is associated with synthesis of proteins involved in cancer, a compound that inhibits this pathway may be used as an anti-cancer agent. The assay was developed by cloning the highly structured 5′ UTR of FGF, which requires high levels of eIF4E before protein synthesis can initiate, into the proper orientation of the reporter gene luciferase, and then stably transfecting the modified luciferase gene into the cell line FaDu that is known to have high levels of eIF4E. The activity of luciferase is then monitored in the presence and absence of the tested compound.
Generation of Stable Cell Lines: The pMS110 plasmid (pGL3-control plasmid from Promega which contains a neo selectable marker) was used to generate pMS110-5′UTR by cloning the 5′ UTR of FGF just upstream of the luciferase AUG start codon. FaDu cells, a head and neck cancer cell line, were transfected using Lipofectamine2000 (Invitrogen). Twenty-four hours after transfection G418 was added at 500 μg/ml. Cells were maintained in G418 for 14 days, and then individual colonies were transferred to a 96-well plate for propagation. Individual clones were analyzed for luciferase expression by plating 10^4 cells per well in a 96-well plate for 24 hours before lysing the cells and analyzing for luciferase activity in a Victor III (Perkin Elmer) or Lucy2 (Rosys Anthos). FaDu9000 and FaDuUTR were the clones that expressed the highest level of active luciferase following transfection of pMS110 and pMS110-5′UTR, respectively.
Analysis of Rapamycin Responsiveness: Cells of FaDu9000 and FaDuUTR were plated at 1×10^4 cells/well in a 96-well dish. Twenty-four hours after plating, 0.1% DMSO (vehicle control) or 10 nM rapamycin were added to each well, and the cells were maintained for an additional 24 or 48 hours. The cells were then lysed and luciferase activity was determined using BriteGlo (Promega) as per manufacturer's instruction and recorded using the Victor III. Following subtraction of background activity, the mean value of quadruplicate samples for a given experiment was determined, and the treated cells were normalized to the control. At least four separate experiments were conducted, and the mean and standard error were calculated. To determine if rapamycin affected cell viability, an MTS assay (Cell Proliferation One Solution, Promega) was carried out on each population at 48 hours in two separate experiments.
The FaDu cell line stably transfected with FGF 5′UTR was used to screen thirty-nine representative compounds, each at a concentration of 1.0 μM. Additional cells were treated with vehicle, 0.3% DMSO. Cells were plated for twenty-four hours in a 96-well plate. Each compound was then added to triplicate wells, and the cells were incubated for forty-eight hours before measuring luciferase activity as above. The mean luciferase activity was measured using Promega's Brite-Glo kit, and the mean for each sample was normalized to DMSO. The experiment was then repeated, and the average and standard deviation of the two experiments were determined (FIG. 8).

FaDu cells = conditions: MTT, 24 hr, 10 nM to 3.3 μM (FIG. 9)
Description: […]. Values greater than 1.0 indicate activation, and values less than 1.0 indicate inhibition.) The compounds that inhibited luciferase translation might, potentially, act by generally inhibiting translation, by reducing cell numbers through inhibition of growth or by cell toxicity, or specifically by inhibiting highly cap-dependent translation. To analyze any general effects on cell viability, fourteen compounds were selected that altered luciferase activity (including a few that increased activity) to test for any effects on cell number. An MTT assay was used to monitor compounds for inhibition of cell growth and cell toxicity. The compounds were tested once in a six-point dose-response assay starting at 10 nM and increasing to 3.3 μM. FaDu cells were plated in a 96-well plate for 24 hr before addition of the compounds. Each compound was added in each of six concentrations (10 nM, 30 nM, 100 nM, 330 nM, 1000 nM, and 3300 nM), and each concentration was tested in triplicate. In addition, DMSO was used as a control. After incubating for 24 hr, the cell number was measured using the MTT assay.

NF-κB = NF-κB inhibitor screen: basal NF-κB-dependent luciferase expression in HEK/NF-κB cell line
Procedure, shortened: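 Basal NF-κB-driven luciferase (six-copy element, stable HEK293 line) was read with Brite-Glo. Compound was added in 0.3% DMSO 24 h post-plating, initially at 1.0 μM and then across 10–3300 nM in six steps, in triplicate wells. Signals were expressed relative to DMSO or to the lowest concentration tested.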

AP-1 = AP-1 inhibitor screen: basal AP-1-dependent luciferase expression in HEK/AP-1 cell line; conditions: 1.0 μM, 48 hr screen of 39 compounds (FIG. 13)
Procedure, shortened: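 Compound effects on unstimulated reporter signal were tested: 1.0 μM compound (0.3% DMSO) for 48 hr on HEK cells bearing an AP-1 (TGACTAA ×3)-luciferase construct, seeded 24 hr earlier. Triplicate luminescence means were normalized to DMSO-only wells; dose-response experiments were repeated 2–4 times.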

SMILES: COc1ccc(C(=O)c2sc(Nc3ccc(Cl)cc3)nc2-c2ccncc2)cc1 [Example 116]
- luciferase expression under the control of the FGF 5′UTR (eIF4E; 1.0 μM, 48 h, FaDu UTR cells, normalized to DMSO (FIG. 8)): inhibited luciferase expression
- inhibition of luciferase activity (FGF 5′UTR) (eIF4E; highest concentration tested): greater than 90%
- inhibition of highly cap-dependent translation (summary statement) (eIF4E; summary in the disclosure): capable of inhibiting
- FaDu cell number / growth / viability (FaDu cells): inhibited cell numbers at each concentration tested
- basal NF-κB-dependent luciferase, six-point dose response (NF-κB; 10 nM-3300 nM (FIG. 12)): robust inhibition
- inhibition of basal NF-κB-dependent luciferase expression (NF-κB; 3.3 μM (FIG. 12)): about 50%
- inhibition of NF-κB (summary statement) (NF-κB; summary in the disclosure): capable of inhibiting
- basal AP-1-dependent luciferase expression (AP-1): almost complete inhibition
